Patent publication US20100004165A1, “Novel Protein Transduction Domains and Uses Therefor” (The Arizona Board of Regents, a body corporate acting on …, priority 2005, published 2010)
Square brackets hold non-standard residues; d marks the D form. Ends that are not written are not given here. pS = N[C@@H](COP(=O)(O)O)C(=O)O

How the values were obtained:
[1] = test system: primary rat astrocyte cells; assay: Transduction across cell membranes in primary rat astrocyte cells; assay type: cell-based
Description: The in vitro model used to assess transduction across cell membranes was primary rat astrocyte cells. Cells were isolated as described (Innocenti et. al., J. Neurosci. 20:1800-1808, 2000), seeded at ˜3×10^4 cells/cm^2, and cultured in full serum (10% FBS in α-MEM) overnight. Some cells were serum starved by culturing in 0.5% FBS for 1-24 hours prior to treatment with transduction peptides.

[2] = test system: porcine ear skin; assay: Ex vivo skin transduction, porcine ear skin in modified Franz diffusion cell (Example 2); assay type: in vitro ADME; conditions: 100 uM, conjugated or alone (FIG. 1, Panel C)
Description: The ex vivo model selected for skin transduction studies was freshly excised porcine ears. […] The system was maintained at 37° C. and under constant stirring. […] The amount of peptides that permeated across the skin was determined in the receptor phase; 1.5 mL of the receptor phase was withdrawn, lyophilized and the residue was suspended in 150 μL of water. […] Standard curves of the peptides were used as reference.

[3] = test system: anal canal; conditions: 1 mM in K-Y Jelly, 4 hours
Description: (§1) Peptide was applied to both the vagina and anal canal using an applicator and allowed to penetrate for 4 hours. Tissue was excised and embedded in frozen tissue embedding medium (HistoPrep) for cryosectioning. Sections were mounted in anti-fade reagent and examined using fluorescence microscopy (Zeiss Axiovert).

[4] = test system: vagina; conditions: 1 mM in K-Y Jelly, 4 hours
Description: as §1

[5] = test system: Rat aorta; assay: Vasorelaxation of rat aorta rings pre-contracted with KCl (muscle bath)
Description: Rat aorta was isolated and dissected free from connective and fat tissue. Transverse rings, 3.0 mm in width, were cut and tied to silk suture. The tissue was suspended in a muscle bath containing a bicarbonate buffer (120 mM NaCl, 4.7 mM KCl, 1.0 mM MgSO4, 1.0 mM NaH2PO4, 10 mM glucose, 1.5 mM CaCl2, and 25 mM […], pH 7.4) and equilibrated with 95% O2/5% CO2 at 37° C. The rings were fixed at one end to a stainless steel wire and attached to a force transducer in muscle perfusion system (Radnotti). The rings were then progressively stretched, and the isometric force generated in response to 110 mM KCl (with equimolar replacement of NaCl in bicarbonate buffer) was determined until the consistent maximal force was produced. Agonists and peptide was added directly to the baths. Tissue that was pre-contracted with 110 mM potassium chloride (KCl) followed by 1.0 mM WL-P20 ([…]p[…], pS is phosphoserine) (SEQ ID NO: 10), where pS is phosphoserine) relaxed compared to untreated control (13% relaxation at 10 minutes, 50% relaxation at 30 minutes, and maximum 88% relaxation at ˜60 minutes, FIG. 4). Percent relaxation was calculated relative to maximum force generated with KCl. […] Such a difference may result from different mechanisms of penetration and/or intracellular localization.

[6] = test system: connective tissue growth factor (CTGF); assay: TGFβ1-induced CTGF expression in human keloid fibroblasts (immunoblot); assay type: cell-based; conditions: 24 hours; for reduction of CTGF expression compared to TGFβ1 treatment: 50 μM peptide
Description: As a key marker of the anti-fibrotic activity of HSP20 peptides, we have previously examined expression levels of connective tissue growth factor (CTGF) in human keloid fibroblasts after stimulation with transforming growth factor beta 1 (TGFβ1). Cells were grown in 10 cm^2 dishes to 70% confluence in DMEM with 10% fetal bovine serum (FBS) and additional penicillin and streptomycin (1%), at 37° C. and 10% CO2. Cells were serum starved in DMEM containing 0.5% FBS for 48 hours before the experiment. Cells were either untreated (control) or treated with TGFβ1 (2.5 ng/mL) in the presence or absence of WL-P20 (SEQ ID NO: 10) phosphopeptide ([…]p[…], where pS is phosphoserine) (10 or 50 μM) for 24 hours. At the end of the experiment, cells were rinsed with PBS, and homogenized using urea-dithiothreitol-chaps (UDC) buffer. Lysates were mixed, centrifuged (6000×g) for 20 minutes, and the supernatant was used for determination of protein expression. Samples (20 μg of protein) were loaded on 15% SDS-PAGE gels, and the proteins were electrophoretically transferred to Immobilon membranes. Immunoblotting with CTGF antibodies was used in conjunction with near infrared detection antibodies to determine CTGF expression (Odyssey Li-Cor, Lincoln, Nebr.). Loading differences were corrected for by normalizing to GAPDH expression
(§2) Human keloid fibroblasts were serum-starved in DMEM medium containing 0.5% FBS for 48 hours, and treated with 2.5 ng/mL of TGF-betal for 24 hours and concomitantly treated with the WL-20 (SEQ ID NO: 10) (10 or 50 μM) for 24 hours. The Western blot bands were quantified by densitometry, and CTGF and collagen expression were related to GAPDH expression to correct for loading differences. The expression of CTGF and collagen in control cells was set to 1 for comparison of different blots.

[7] = test system: collagen; assay: TGFβ1-induced collagen expression in human keloid fibroblasts (Western blot); assay type: cell-based; conditions: 10 or 50 μM, 24 hours
Description: as §2

[8] = test system: porcine ear skin; assay: In vitro skin penetration and transdermal delivery, porcine ear skin in Franz diffusion cell, spectrofluorimetry (Example 3); conditions: up to 8 hours post-application
Description: Fluorescence microscopy was used to visualize the peptides in different skin layers.
Formulations: Except in the experiments involving chemical penetration enhancers, FITC-labeled peptides were dissolved in phosphate-buffered saline (PBS, 10 mM, pH 7.2); the peptide concentration was 100 μM. In the experiment involving penetration enhancers, PBS could not be used as a solvent because of the lipophilic nature of monoolein and oleic acid. Propylene glycol was used as a solvent, since it solubilizes both lipids and peptides. […] The formulations were prepared by mixing monoolein or oleic acid with propylene glycol and adding the peptides to the system immediately thereafter.
Porcine ear skin was used as model skin for in vitro skin penetration studies because of its similarity with human skin, especially regarding histological and biochemical properties and permeability to drugs (33). Freshly excised porcine ears were obtained from a local abattoir. The skin from the outer surface of the ear was carefully dissected; making sure that the subcutaneous fat was maximally removed (34). Maximum care was taken to maintain the integrity of the skin, which was assured by histology. The cleaned porcine ear skin was immediately mounted in a Franz diffusion cell (diffusion area of 1 cm^2; Laboratory Glass Apparatus, Inc, Berkeley, Calif., USA), with the stratum corneum facing the donor compartment (where the formulation was applied) and the dermis facing the receptor compartment, which was filled with PBS (100 mM, pH 7.2, 3 mL). The receptor phase was maintained at 37° C. and under constant stirring. To achieve higher reproducibility, the skin samples were equilibrated to the diffusion cell conditions for 30 minutes before application of any formulation.
PBS solutions or propylene glycol formulations of the peptides (70 μL each) were applied to the skin surface (donor compartment). […] The concentrations of FITC-P20 (SEQ ID NO: 9), FITC-YARA-P20 (SEQ ID NO: 42), and FITC-TAT-P20 (SEQ ID NO: 43) in the skin and receptor phase were determined at 0.5, 1, 2, 4, and 8 hour post-application.
At the end of the experiment, skin surfaces were thoroughly washed with distilled water to remove excess formulation and carefully wiped with a tissue paper. To separate the stratum corneum (SC) from the remaining epidermis (E) and dermis (D), the skin was subjected to tape stripping. The skin was stripped with 15 pieces of adhesive tape (3M, St. Paul, Minn., USA), and the tapes containing the SC were immersed in 3 mL of a water:methanol (1:1 v/v) solution, vortexed for 2 min, and bath sonicated for 30 minutes. The remaining [E+D] was cut in small pieces, vortexed for 2 minutes in 2 mL of a water:methanol (1:1 v/v) solution, and homogenized using a tissue grinder for 1 minute and bath sonication for 30 minutes. The resulting mixture was centrifuged for 1 minute. The peptide present in the receptor phase was concentrated (10×) as follows. Samples (2 mL) of the receptor phase were lyophilized for 24 hours, and the residue was dissolved in 200 μL of a hidroalcoholic (20% of ethanol) solution.
All solutions were subjected to fluorimetry analysis using a Gemini SpectraMax™ platereader (Molecular Devices, Sunnyvale, Calif., USA) with excitation at 495 nm and emission at 518 nm. […] To evaluate the recovery of the peptides from the skin in the extraction procedure, tissues sections (1 cm^2) were spiked with 20 μL of 0.2 and 0.5 mM solutions of the peptides. The skin sections were homogenized using a tissue grinder, vortex-mixer, and bath sonicator, as described above. […] We accounted for such a recovery percentage in the quantification of peptides.

[9] = test system: porcine ear skin; assay: Fluorescence microscopy of skin sections after peptide application; conditions: 4 hours post-application
Excerpt: The skin sections (8 μm) were mounted on glass slides. The slides were visualized without any additional staining or treatment through a 20× objective using a Zeiss microscope (Carl Zeiss, Thornwood, N.Y., USA) equipped with a filter for FITC and AxioVision software.

Substance | time of maximal transduction [1] | transduction ([1]; 1 μM) | transduction ([1]; 25 μM) | transduction ([1]; 50 μM) | skin penetration [2] | fluorescence in the anal canal [3] | mucosal penetration in the vagina [4] | time of maximum relaxation [5] | maximum relaxation relative to maximum force generated with KCl ([5]; 1.0 mM peptide, 110 mM KCl pre-contraction) | relaxation relative to maximum force generated with KCl ([5]; 1.0 mM peptide, 110 mM KCl pre-contraction, at 10 minutes) | relaxation relative to maximum force generated with KCl ([5]; 1.0 mM peptide, 110 mM KCl pre-contraction, at 30 minutes) | reduction of CTGF expression compared to TGFβ1 treatment [6] | effect on TGFβ1-induced CTGF expression ([6]; 10 or 50 μM) | effect on TGFβ1-induced collagen expression [7] | permeation across the skin, in words [8] | localisation of fluorescence in skin layers [9]
WLRRIKAWLRRApSAPLPGLK (WLRRIKAWLRRA[pS]APLPGLK) [WL-P20] | approximately 20 minutes | no transduction | slightly reduced transduction | efficient transduction | significantly enhanced | only minimal fluorescence | Mucosal penetration in the vagina was achieved | ~60 min | 88% | 13% | 50% | 46% | inhibits | inhibits |  | 
WLRRApSAPLPGLK (WLRRA[pS]APLPGLK; also: FITC label) [P20, fragment of HSP20, cargo peptide, pS is phosphoserine] |  |  |  |  |  |  |  |  |  |  |  | 30% |  |  | did not permeate across the skin at all | fluorescence was found only in the SC
